Source: patent US20240148821A1, “PHARMACEUTICAL USE OF CYCLIC PEPTIDE COMPOUND” (CHUGAI SEIYAKU KABUSHIKI KAISHA, priority 2021, published 2024)
Numbered stars: 1 amine (or outer) side, 2 acyl side, 3 side chain; on linkers, the order of the positions; unused ones are H or OH. Bridge positions count the residues as written; N and C are the ends. Square brackets hold non-standard residues; d marks the D form. Peptide text beside a SMILES is read from it. * marks the point of attachment. hPhe(3,5-F2-4-CF3) = N[C@@H](CCc1cc(F)c(C(F)(F)F)c(F)c1)C(=O)O; hPhe(3-Cl-4-CF3) = N[C@@H](CCc1ccc(C(F)(F)F)c(Cl)c1)C(=O)O; hPhe(3-F,4-CF3) = N[C@@H](CCc1ccc(C(F)(F)F)c(F)c1)C(=O)O; 3Oxa8azabicyclo(3.2.1)octane = C1CC2COCC1N2*; NMePhe(4-Me) = CN[C@@H](Cc1ccc(C)cc1)C(=O)O; NMedβ3hAla = C[C@H](CC(=O)[*:2])N(C)[*:1]; NMeAla(cPent) = CN[C@@H](CC1CCCC1)C(=O)O; NMeGly(cPent) = CN[C@H](C(=O)O)C1CCCC1; NMe3Pal = CN[C@@H](Cc1cccnc1)C(=O)O; NMeCha = CN[C@@H](CC1CCCCC1)C(=O)O; NMeAhp(2) = CCCCC[C@H](NC)C(=O)O; NMeChg = CN[C@H](C(=O)O)C1CCCCC1; NMeI = CC[C@H](C)[C@H](NC)C(=O)O; N(CH2CH2)2CF2 = FC1(F)CCN(*)CC1; NMeD = CN[C@@H](CC(=O)O)C(=O)O; dNMeD = CN[C@H](CC(=O)O)C(=O)O; NMeL = CN[C@@H](CC(C)C)C(=O)O; hLeu = CC(C)CC[C@H](N)C(=O)O; NMeNva = CCC[C@H](NC)C(=O)O; NMeV = CN[C@H](C(=O)O)C(C)C; NMeC = CN[C@@H](CS)C(=O)O; Morpholide = C1CN(*)CCO1; NMeA = CN[C@@H](C)C(=O)O; NMeAib = CNC(C)(C)C(=O)O; Nle = CCCC[C@H](N)C(=O)O; Piperidide = C1CCN(*)CC1; Pyrrolidide = C1CCN(*)C1; dNMeA = CN[C@H](C)C(=O)O; Ac5c = NC1(C(=O)O)CCCC1; Aze = O=C(O)[C@@H]1CCN1; Sar = CNCC(=O)O

Key:
[1] = target: protein-protein interaction between Kras and SOS1 (biotin-tagged human Kras loaded with GDP, His-tagged human SOS1) (Homo sapiens (Human), UniProt P01116, G12D); assay: Protein-protein interaction inhibition between Kras and SOS1 (KrasG12D-SOS PPI) using AlphaScreen; type: biochemical; conditions: AlphaScreen; biotin-tagged human Kras loaded with GDP, His-tagged human SOS1; read-out: KRAS G12D-SOS PPI IC50;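 further: kras produced in E. coli, Ni-coupled donor beads and streptavidin acceptor beads, excitation 680 nm with emission detected at 520–620 nm via singlet oxygen transfer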
[2] = system: Human pancreatic cancer cell line AsPC-1 (G12D mutation Kras); assay: AsPC-1 cell growth inhibition (AsPC-1 CGI); type: cell-based; conditions: read-out: AsPC-1 cell growth inhibition, 50% growth inhibitory concentration (IC50 value); 96 hours, CellTiter-Glo, values classified in ranges
Protocol: Test compounds were serially dilated with dimethyl sulfoxide, and 200 nL was then dispensed to a U-bottom 96-well plate using Labcyte Echo. […] The cell suspension was dispensed to a. plate containing a test compound at 100 μL per well and incubated at 37° C. in a 5% carbon dioxide gas incubator. 96 hours later, 80 μL of CellTiter-Glo (Promega) was added to each well and fluorescence was measured.

| Compound | IC50 [1] [nM] | IC50 [2] [nM] |
| --- | --- | --- |
| CC[C@H](C)[C@@H]1NC(=O)[C@H](CC(C)C)N(C)C(=O)C[C@@H](C(=O)N2C3CCC2COC3)N(C)C(=O)[C@H](C2CCCC2)N(C)C(=O)C2(CCCC2)NC(=O)[C@@H]2CCCN2C(=O)[C@H](CCc2ccc(C(F)(F)F)c(Cl)c2)NC(=O)CN(C)C(=O)[C@H](CC2CCCCC2)N(C)C(=O)[C@@H]2CCN2C(=O)[C@H](C)N(C)C1=O [Compound 973] ([NMeL]I[NMeA][Aze][NMeCha][Sar][hPhe(3-Cl-4-CF3)]P[Ac5c][NMeGly(cPent)][NMeD]-{3Oxa8azabicyclo(3.2.1)octane}; lactam N-11) | 2.8 | ≤ 20 |
| CC[C@H](C)[C@@H]1NC(=O)[C@H](CC(C)C)N(C)C(=O)CSC[C@@H](C(=O)N(C)C)N(C)C(=O)[C@H](C2CCCC2)N(C)C(=O)C2(CCCC2)NC(=O)[C@@H]2CCCN2C(=O)[C@H](CCc2ccc(C(F)(F)F)c(F)c2)NC(=O)CN(C)C(=O)[C@H](C2CCCC2)N(C)C(=O)[C@@H]2CCN2C(=O)[C@H](C)N(C)C1=O [Compound 2179] ({CH2CO}-[NMeL]I[NMeA][Aze][NMeGly(cPent)][Sar][hPhe(3-F,4-CF3)]P[Ac5c][NMeGly(cPent)][NMeC]-NMe2; thioether N-11) | 540 | > 500 |
| CCC[C@H]1C(=O)N[C@@H]([C@@H](C)CC)C(=O)N(C)CC(=O)N(C)CC(=O)N(C)[C@@H](CC2CCCC2)C(=O)N(C)CC(=O)N[C@@H](CCc2ccc(C(F)(F)F)c(Cl)c2)C(=O)N(C)[C@@H](Cc2cccnc2)C(=O)NC2(CCCC2)C(=O)N(C)[C@@H](C2CCCCC2)C(=O)N(C)[C@H](C(=O)N2CCOCC2)CC(=O)N1C [Compound 1937] ([NMeNva]I[Sar][Sar][NMeAla(cPent)][Sar][hPhe(3-Cl-4-CF3)][NMe3Pal][Ac5c][NMeChg][NMeD]-Morpholide; lactam N-11) | 3.1 | > 500 |
| CC(C)CC[C@@H]1NC(=O)[C@H](CC(C)C)N(C)C(=O)C[C@@H](C(=O)N2CCCCC2)N(C)C(=O)[C@H](C(C)C)N(C)C(=O)C2(CCCC2)NC(=O)[C@@H]2CCCN2C(=O)[C@H](CCc2ccc(C(F)(F)F)c(Cl)c2)NC(=O)CN(C)C(=O)[C@H](CC2CCCCC2)N(C)C(=O)[C@@H]2CCN2C(=O)[C@H](C)N(C)C1=O [Compound 1697] ([NMeL][hLeu][NMeA][Aze][NMeCha][Sar][hPhe(3-Cl-4-CF3)]P[Ac5c][NMeV][NMeD]-Piperidide; lactam N-11) | 110 | > 500 |
| CC[C@H](C)[C@@H]1NC(=O)[C@H](C)N(C)C(=O)C[C@@H](C(=O)N2CCOCC2)N(C)C(=O)[C@H](C(C)C)N(C)C(=O)C2(CCCC2)NC(=O)[C@@H]2CCCN2C(=O)[C@H](CCc2ccc(C(F)(F)F)c(Cl)c2)NC(=O)[C@@H](C)N(C)C(=O)[C@H](CC2CCCCC2)N(C)C(=O)[C@@H]2CCN2C(=O)[C@H](C)N(C)C1=O [Compound 1664] ([NMeA]I[NMeA][Aze][NMeCha][dNMeA][hPhe(3-Cl-4-CF3)]P[Ac5c][NMeV][NMeD]-Morpholide; lactam N-11) | 8.8 | > 500 |
| CC[C@H](C)[C@@H]1NC(=O)[C@H](CC(C)C)N(C)C(=O)C[C@@H](C(=O)N(C)C)N(C)C(=O)[C@H]([C@@H](C)CC)N(C)C(=O)C2(CCCC2)NC(=O)[C@@H]2CCCN2C(=O)[C@H](CCc2ccc(C(F)(F)F)c(Cl)c2)NC(=O)CN(C)C(=O)[C@H](Cc2ccc(C)cc2)N(C)C(=O)[C@@H]2CCN2C(=O)[C@H](C)N(C)C1=O [Compound 1842] ([NMeL]I[NMeA][Aze][NMePhe(4-Me)][Sar][hPhe(3-Cl-4-CF3)]P[Ac5c][NMeI][NMeD]-NMe2; lactam N-11) | 0.66 | ≤ 20 |
| CCCCC[C@H]1C(=O)N[C@@H]([C@@H](C)CC)C(=O)N[C@@H](C)C(=O)N2CC[C@H]2C(=O)N(C)[C@@H](Cc2ccc(C)cc2)C(=O)N(C)CC(=O)N[C@@H](CCc2ccc(C(F)(F)F)c(Cl)c2)C(=O)N2CCC[C@H]2C(=O)NC2(CCCC2)C(=O)N(C)[C@@H]([C@@H](C)CC)C(=O)N(C)[C@H](C(=O)N(C)C)CC(=O)N1C [Compound 342] ([NMeAhp(2)]IA[Aze][NMePhe(4-Me)][Sar][hPhe(3-Cl-4-CF3)]P[Ac5c][NMeI][NMeD]-NMe2; lactam N-11) | 0.95 | ≤ 20 |
| CC[C@H](C)[C@@H]1NC(=O)[C@H](C)N(C)C(=O)C[C@@H](C(=O)N2CCCCC2)N(C)C(=O)[C@H](C(C)C)N(C)C(=O)C2(CCCC2)NC(=O)[C@@H](CC(=O)N2CCC(F)(F)CC2)N(C)C(=O)[C@H](CCc2ccc(C(F)(F)F)c(Cl)c2)NC(=O)CN(C)C(=O)[C@H](CC2CCCCC2)N(C)C(=O)CN(C)C(=O)CN(C)C1=O [Compound 1025] ([NMeA]I[Sar][Sar][NMeCha][Sar][hPhe(3-Cl-4-CF3)][dNMeD](N(CH2CH2)2CF2)[Ac5c][NMeV][NMeD]-Piperidide; lactam N-11) | 4.3 | > 500 |
| CC[C@H](C)[C@@H]1NC(=O)[C@H](CC(C)C)N(C)C(=O)C[C@@H](C(=O)N(C)C)N(C)C(=O)[C@H]([C@@H](C)CC)N(C)C(=O)C2(CCCC2)NC(=O)[C@@H]2CCCN2C(=O)[C@H](CCc2cc(F)c(C(F)(F)F)c(F)c2)NC(=O)CN(C)C(=O)[C@H](Cc2ccc(C)cc2)N(C)C(=O)[C@@H]2CCN2C(=O)[C@H](C)N(C)C1=O [Compound 1080] ([NMeL]I[NMeA][Aze][NMePhe(4-Me)][Sar][hPhe(3,5-F2-4-CF3)]P[Ac5c][NMeI][NMeD]-NMe2; lactam N-11) | 1 | ≤ 20 |
| CC[C@H](C)[C@@H]1NC(=O)[C@H](CC(C)C)N(C)C(=O)C[C@@H](C(=O)N2CCCC2)N(C)C(=O)[C@H]([C@@H](C)CC)N(C)C(=O)C2(CCCC2)NC(=O)[C@@H]2CCCN2C(=O)[C@H](CCc2ccc(C(F)(F)F)c(Cl)c2)NC(=O)CN(C)C(=O)[C@H](Cc2ccc(C)cc2)N(C)C(=O)[C@@H]2CCN2C(=O)[C@H](C)N(C)C1=O [Compound 1645] ([NMeL]I[NMeA][Aze][NMePhe(4-Me)][Sar][hPhe(3-Cl-4-CF3)]P[Ac5c][NMeI][NMeD]-Pyrrolidide; lactam N-11) | 1 | ≤ 20 |
| CCCC[C@@H]1NC(=O)[C@H](CC(C)C)N(C)C(=O)C[C@@H](C(=O)N2CCCCC2)N(C)C(=O)[C@H](C(C)C)N(C)C(=O)C2(CCCC2)NC(=O)[C@@H]2CCCN2C(=O)[C@H](CCc2ccc(C(F)(F)F)c(Cl)c2)NC(=O)CN(C)C(=O)[C@H](CC2CCCCC2)N(C)C(=O)[C@@H]2CCN2C(=O)[C@H](C)N(C)C1=O [Compound 1823] ([NMeL][Nle][NMeA][Aze][NMeCha][Sar][hPhe(3-Cl-4-CF3)]P[Ac5c][NMeV][NMeD]-Piperidide; lactam N-11) | 59 | > 500 |
| CC[C@H](C)[C@@H]1NC(=O)[C@H](C)N(C)C(=O)C[C@@H](C)N(C)C(=O)[C@H](CC(C)C)NC(=O)C(C)(C)N(C)C(=O)[C@H](CC(C)C)NC(=O)[C@H](CCc2ccc(C(F)(F)F)c(F)c2)NC(=O)CN(C)C(=O)[C@H](CC2CCCCC2)N(C)C(=O)CN(C)C(=O)CN(C)C1=O [Compound 842] (cyclo(I[Sar][Sar][NMeCha][Sar][hPhe(3-F,4-CF3)]L[NMeAib]L[NMedβ3hAla][NMeA])) | 43 | > 500 |
